According to PubChem BioAssay AID857 (Vanderbilt High Throughput Screening Facility, 2007):
Active and inactive are the calls of the source.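 The calls were made as follows: active = a full or partial dose-response curve in at least two of three replicate runs; inactive = the rest.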

What follows are compounds tested against D(1B) dopamine receptor (Homo sapiens) (UniProt P21918) (assay: dopamine D5 receptor modulation at EC30 dopamine, dose response, selectivity assay for D1 allosteric modulator project, cell-based, HEK293, CRE-luciferase, luminescence (AID 857);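 also: HEK 293 cells expressing human D5 with a CRE-driven luciferase reporter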).
D(1B) dopamine receptor (Homo sapiens), sequence (P21918 whole entry, looked up): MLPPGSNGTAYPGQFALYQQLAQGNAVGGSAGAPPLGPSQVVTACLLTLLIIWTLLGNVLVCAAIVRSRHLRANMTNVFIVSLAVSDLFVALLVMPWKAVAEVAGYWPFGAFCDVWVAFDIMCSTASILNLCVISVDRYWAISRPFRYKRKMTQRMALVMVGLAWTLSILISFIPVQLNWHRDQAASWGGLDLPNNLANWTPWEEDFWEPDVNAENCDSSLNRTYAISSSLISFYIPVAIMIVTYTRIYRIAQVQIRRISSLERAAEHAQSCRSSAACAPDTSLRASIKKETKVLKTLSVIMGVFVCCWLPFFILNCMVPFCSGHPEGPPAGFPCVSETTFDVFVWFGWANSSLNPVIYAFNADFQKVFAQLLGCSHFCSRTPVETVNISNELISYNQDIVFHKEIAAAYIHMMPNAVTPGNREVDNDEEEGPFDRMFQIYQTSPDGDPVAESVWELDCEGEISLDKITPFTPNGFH

outcome	EC50 [nM]	SMILES
inactive	–	CCOC(=O)c1c(C)c(C(=O)NCc2ccc3c(c2)OCO3)c(C)n1C
inactive	–	CCCC(=O)Nc1ccc(NC(=O)C2CC2)cn1
inactive	–	CCOC(=O)c1c(NC(=O)c2cccs2)sc(C)c1CC
inactive	–	Cc1nn2c(N3CCCC3)cc(C(C)C)nc2c1-c1ccccc1
inactive	–	CSC1=NCCN1C(=O)Cc1cccs1
–	1900	CCC(=O)NC(=Nc1nc2ccccc2s1)NC(=O)CC
–	1070	CCCCn1c(=NC(=O)c2cccnc2)c(C(=O)OCC)cc2c(=O)n3ccccc3nc21
inactive	–	Clc1ccc(-n2nnnc2-c2ccccc2)cc1
inactive	–	COc1ncnc2c1N=C1CC(C)(C)CC(N)=C1S2
inactive	–	CCOC(=O)c1[nH]cnc1C(=O)Nc1ccccn1
inactive	–	C=CCn1c(=S)[nH]c2nc3c(cc2c1=O)CCCC3
inactive	–	CCc1nc2sc3ccccc3c(=O)c2c(=O)n1Cc1ccco1
inactive	–	CCc1ccc2[nH]c(=O)c(CN(Cc3nnnn3C3CCCC3)C3CCCCC3)cc2c1
inactive	–	CCOC(=O)c1[nH]c2ccccc2c1NC(=O)C(C)(C)C
inactive	–	CC(=O)Oc1c(Cl)c(N2CCOCC2)c(OC(C)=O)c2ccccc12
inactive	–	CCOC(=O)N1CCN(C(=O)CCCn2c(=S)[nH]c3ccccc3c2=O)CC1
inactive	–	Cc1cc(NS(=O)(=O)c2ccc(NC(=O)COc3ccccc3C(C)C)cc2)no1
inactive	–	COc1ccc(CN2CCN(S(=O)(=O)c3ccccc3)CC2)c(OC)c1
inactive	–	CCN1C(=O)c2cccc3c(S(=O)(=O)Nc4ccccn4)ccc1c23
inactive	–	Cc1nnc(SCCn2c(N3CCCC(C)C3)nc3c2c(=O)[nH]c(=O)n3C)s1 (stereo unspecified)
inactive	–	NC(=O)NC(=O)Nc1ccccc1Cl

outcome	EC50 [nM]	SMILES
inactive	–	COC(=O)c1cccc(N2C(=O)C(Cl)=C(N3CCOCC3)C2=O)c1
inactive	–	CCN=C1SC(C(N)=O)CC(=O)N1CC (stereo unspecified)
inactive	–	Cc1cc(C)nc(SCC(=O)Nc2ncc3c(n2)CC(C)(C)CC3=O)n1
inactive	–	CCOC(=O)Nc1sc(C(=O)N(CC)CC)c(C)c1C(=O)OCC
inactive	–	CCOc1ncccc1C(=O)OCc1nnc(-c2ccccc2)o1
inactive	–	CC(=O)c1nn(-c2cccc(Cl)c2)cc1C(=O)c1ccco1
inactive	–	O=C(c1ccco1)N1CCN(c2nc(C3CC3)nc3sc4c(c23)CCCC4)CC1
inactive	–	CCC(=O)Nc1nc2c(OC)ccc(OC)c2s1
inactive	–	O=C(CSc1nnc(COc2ccc(F)cc2)o1)N1c2ccccc2CCc2ccccc21
inactive	–	CCN(CC)CCOc1c(Br)ccc2c1sc1nc3n(c(=O)c12)CCC3
inactive	–	CSc1ccccc1NC(=O)c1onc(C)c1Cl
inactive	–	COc1ccc(-c2csc3nc(C)n(-n4cccc4)c(=O)c23)cc1OC
inactive	–	CCc1ccc2oc(=O)cc(CN3CCOCC3)c2c1
inactive	–	COc1ncnc2c1N[C@@](C)(O)c1c(F)c(F)c(F)c(F)c1S2
inactive	–	O=C1CC(c2ccsc2)c2cc3c(cc2N1)OCCO3 (stereo unspecified)
inactive	–	CCn1c(=O)c(C(=O)NCc2cccnc2)c(O)c2ccccc21
inactive	–	COc1ccc(S(=O)(=O)N2CCSC2c2ccc(OC)c(OC)c2)cc1 (stereo unspecified)
inactive	–	CCOc1ccccc1NC(=O)CN(C)S(=O)(=O)c1cccc2nsnc12
inactive	–	CCOc1cc(C2C(C#N)=C(N)Oc3n[nH]c(-c4ccccc4)c32)ccc1O (stereo unspecified)
inactive	–	CCOC(=O)c1cc2c(=O)n3ccccc3nc2n(CCCOC)c1=NC(=O)C(C)(C)C
inactive	–	N#Cc1c(N)nc(-c2ccccc2)nc1-c1ccccc1

outcome	EC50 [nM]	SMILES
inactive	–	CC(=NCc1cccnc1)C1=C(O)c2ccccc2C1=O
inactive	–	COc1ccc(OC)c(NC(=O)CSc2nc3ccccc3c(=O)n2CCNC(C)=O)c1
inactive	–	N#CC1=C(N)n2c(s/c(=C\c3ccco3)c2=O)=C(C#N)C1c1ccco1 (stereo unspecified)
inactive	–	N#CC1=C(N)Oc2nc(-c3ccccc3)[nH]c2C1c1cccnc1 (stereo unspecified)
inactive	–	CCCc1cc(C(=O)Nc2sc(C(C)=O)c(C)c2C(=O)OCC)no1
inactive	–	Cc1cc(=O)c2n(Cc3ccc(Cl)cc3)nc[n+]2[nH]1
inactive	–	Cc1cc2cc(CN(CCN3CCOCC3)C(=O)Nc3ccccc3F)c(=O)[nH]c2cc1C
inactive	–	N#Cc1cc2ccccc2nc1SCC(=O)Nc1ccc(S(=O)(=O)N2CCCC2)cc1
inactive	–	Clc1ccccc1Cn1nnc2c(N3CCCC3)ncnc21
inactive	–	CCC(=O)N1CCc2cc(S(=O)(=O)NCCC(=O)NC3CCCc4ccccc43)ccc21 (stereo unspecified)
inactive	–	CCOC(=O)N1CCN(S(=O)(=O)c2ccc3c(c2)CCN3C(=O)C2CCC2)CC1
inactive	–	Cc1[nH]nc2c1C(c1ccc(F)cc1)C1=C(CC(C)(C)CC1=O)N2 (stereo unspecified)
inactive	–	N#CCCN1CCN(S(=O)(=O)c2ccc(S(=O)(=O)NC3CCCCC3)cc2)CC1
inactive	–	CCCn1c(=NC(C)=O)c(C(=O)OCC)cc2c(=O)n3ccccc3nc21
inactive	–	Cn1c(SCc2ccon2)nc2ccccc2c1=O
inactive	–	CCC(=O)Nc1cccc(NC(=O)c2cc3ccccc3o2)c1
inactive	–	NC(=O)COc1ccc(NC(=O)OCc2ccccc2)cc1
inactive	–	CCn1cc(C(=O)OCC(=O)OC2CC(C)CCC2C(C)C)c(=O)c2ccc(C)nc21 (stereo unspecified)
inactive	–	CCOc1ccc(N/C(SC)=C(/C#N)C(N)=O)cc1
